Measured values taken from EP1027361B1, “6,11-BRIDGED ERYTHROMYCIN DERIVATIVES” (Abbott Laboratories, priority 1997, dated 1999).

Assays:
Assay in all cases: in vitro antibacterial activity, agar dilution MIC
Type in all cases: cell-based
[1] = tested on: Enterococcus faecium ATCC 8043; settings: organism code II, BHI agar, 35-37 °C, 20 to 24 hours
Description: (§1) Erythromycin A was used for this purpose.
(§2) After incubation, each plate was visually inspected.

Escherichia coli JUHL = settings: organism code QQ, BHI agar, 35-37 °C, 20 to 24 hours
Description: as §1, §2

Escherichia coli SS = settings: organism code RR, BHI agar, 35-37 °C, 20 to 24 hours
Description: as §1, §2

[2] = tested on: Haemophilis Influenzae DILL AMP R; settings: organism code WW, BHI agar, 35-37 °C, 20 to 24 hours
Description: as §1, §2

[3] = tested on: Micrococcus luteus ATCC 4698; settings: organism code PP, BHI agar, 35-37 °C, 20 to 24 hours
Description: as §1, §2

[4] = tested on: Micrococcus luteus ATCC 9341; settings: organism code OO, BHI agar, 35-37 °C, 20 to 24 hours
Description: as §1, §2

[5] = tested on: Nocardia Asteroides ATCC9970; settings: organism code VV, BHI agar, 35-37 °C, 20 to 24 hours
Description: as §1, §2

[6] = tested on: Staphylococcus aureus CMX 553; settings: organism code FF, BHI agar, 35-37 °C, 20 to 24 hours
Description: as §1, §2

[7] = tested on: Staphylococcus aureus CMX 642A; settings: organism code DD, BHI agar, 35-37 °C, 20 to 24 hours
Description: as §1, §2

[8] = tested on: Staphylococcus aureus NCTC10649M; settings: organism code EE, BHI agar, 35-37 °C, 20 to 24 hours
Description: as §1, §2

[9] = tested on: Staphylococcus epidermidis 3519; settings: organism code HH, BHI agar, 35-37 °C, 20 to 24 hours
Description: as §1, §2

[10] = tested on: Streptococcus Pheumoniae 5649; settings: organism code ZZA, BHI agar, 35-37 °C, 20 to 24 hours
Description: as §1, §2

[11] = tested on: Streptococcus Pheumoniae GYR 1171; settings: organism code YY, BHI agar, 35-37 °C, 20 to 24 hours
Description: as §1, §2

[12] = tested on: Staphylococcus aureus ATCC 6538P; set-up: unit not given here; settings: organism code AA, BHI agar, 35-37 °C, 20 to 24 hours
Description: as §1, §2

[13] = tested on: Streptococcus Pheumoniae ATCC6303; set-up: unit not given here; settings: organism code XX, BHI agar, 35-37 °C, 20 to 24 hours
Description: as §1, §2

[14] = tested on: Streptococcus agalactiae CMX 508; set-up: unit not given here; settings: organism code KK, BHI agar, 35-37 °C, 20 to 24 hours
Description: as §1, §2

[15] = tested on: Streptococcus bovis A-5169; set-up: unit not given here; settings: organism code JJ, BHI agar, 35-37 °C, 20 to 24 hours
Description: as §1, §2

[16] = tested on: Streptococcus pyogenes EES61; set-up: unit not given here; settings: organism code LL, BHI agar, 35-37 °C, 20 to 24 hours
Description: as §1, §2

Candida albicans CCH 442 = settings: organism code TT, BHI agar, 35-37 °C, 20 to 24 hours
In short: (§3)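 Serial aqueous dilutions of compound in Brain Heart Infusion agar plates, spot-inoculated by replicator with 1:100 culture dilutions (1:10 for slow growers such as Streptococcus). Compound-free growth controls and a same-class reference antibiotic plate included. MIC = lowest concentration giving no growth, slight haze or sparse isolated colonies versus growth control.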

Escherichia coli DC-2 = settings: organism code SS, BHI agar, 35-37 °C, 20 to 24 hours
In short: as §3

[17] = tested on: Staphylococcus aureus 1775; settings: organism code GG, BHI agar, 35-37 °C, 20 to 24 hours
In short: as §3

[18] = tested on: Staphylococcus aureus A-5278; settings: organism code CC, BHI agar, 35-37 °C, 20 to 24 hours
In short: as §3

[19] = tested on: Streptococcus Pheumoniae 5979; settings: organism code ZZ, BHI agar, 35-37 °C, 20 to 24 hours
In short: as §3

[20] = tested on: Streptococcus pyogenes 930; settings: organism code MM, BHI agar, 35-37 °C, 20 to 24 hours
In short: as §3

[21] = tested on: Streptococcus pyogenes PIU 2548; settings: organism code NN, BHI agar, 35-37 °C, 20 to 24 hours
In short: as §3

[22] = tested on: Mycobacterium smegmatis ATCC 114; set-up: unit not given here; settings: organism code UU, BHI agar, 35-37 °C, 20 to 24 hours
In short: as §3

[23] = tested on: Staphylococcus aureus A5177; set-up: unit not given here; settings: organism code BB, BHI agar, 35-37 °C, 20 to 24 hours
In short: as §3

Compound	minimum inhibitory concentration (MIC) [1]	minimum inhibitory concentration (MIC) (Escherichia coli JUHL)	minimum inhibitory concentration (MIC) (Escherichia coli SS)	minimum inhibitory concentration (MIC) [2]	minimum inhibitory concentration (MIC) [3]	minimum inhibitory concentration (MIC) [4]	minimum inhibitory concentration (MIC) [5]	minimum inhibitory concentration (MIC) [6]	minimum inhibitory concentration (MIC) [7]	minimum inhibitory concentration (MIC) [8]	minimum inhibitory concentration (MIC) [9]	minimum inhibitory concentration (MIC) [10]	minimum inhibitory concentration (MIC) [11]	minimum inhibitory concentration (MIC) [12]	minimum inhibitory concentration (MIC) [13]	minimum inhibitory concentration (MIC) [14]	minimum inhibitory concentration (MIC) [15]	minimum inhibitory concentration (MIC) [16]	minimum inhibitory concentration (MIC) (Candida albicans CCH 442)	minimum inhibitory concentration (MIC) (Escherichia coli DC-2)	also measured
CC[C@H]1OC(=O)[C@H](C)[C@@H](O[C@H]2C[C@@](C)(OC)[C@@H](OC(C)=O)[C@H](C)O2)[C@H](C)[C@@H](O[C@@H]2O[C@H](C)C[C@H](N(C)C)[C@H]2O)[C@@]2(C)C[C@@H](C)C(=O)[C@H](C)[C@H]3N(CCNCc4cccc(c4)C=CCO2)C(=O)O[C@]13C [Example 10, Compound of Formula (I), 2'-R^p is H, 4"-R^p is acetyl, m is 2, A is NH, B is-(CH2)q-, q is 1, D is 1,3-phenylene, E is-(CH2)r-CH=CH-, r is 0, n is 1]	0.78	>100	6.2	64	1.56	0.39	1.56	6.2	6.2	6.2	6.2	8	0.25	6.2	0.12	0.39	0.39	0.78	>100	>100	minimum inhibitory concentration (MIC) [17]: 100; minimum inhibitory concentration (MIC) [18]: 100; minimum inhibitory concentration (MIC) [19]: 64; minimum inhibitory concentration (MIC) [20]: 25; minimum inhibitory concentration (MIC) [21]: 6.2; minimum inhibitory concentration (MIC) [22]: 0.39; minimum inhibitory concentration (MIC) [23]: 25
CC[C@H]1OC(=O)[C@H](C)[C@@H](O[C@H]2C[C@@](C)(OC)[C@@H](O)[C@H](C)O2)[C@H](C)[C@@H](O[C@@H]2O[C@H](C)C[C@H](N(C)C)[C@H]2O)[C@@]2(C)C[C@@H](C)C(=O)[C@H](C)[C@H]3N(CCC=CCO2)C(=O)O[C@]13C [Example 17, Compound of Formula (I), R^p is H, m is 2, A is absent, B is absent, D is absen, E is-(CH2)r-CH=CH-, r is 0, n is 1]	0.05	>100	0.78	8	0.1	0.02	0.02	0.1	0.2	0.2	0.2	8	0.015	0.1	0.015	0.01	0.01	0.02	>100	>100	minimum inhibitory concentration (MIC) [17]: >100; minimum inhibitory concentration (MIC) [18]: >100; minimum inhibitory concentration (MIC) [19]: >128; minimum inhibitory concentration (MIC) [20]: >100; minimum inhibitory concentration (MIC) [21]: 25; minimum inhibitory concentration (MIC) [22]: 0.2; minimum inhibitory concentration (MIC) [23]: 6.2
